This is an account of results in BindingDB's records for doi:10.1021/jm00403a011 (Bristol Myers Squibb, 1988).

The target in this test is D(2) dopamine receptor (Rattus norvegicus, UniProt P61169). The experiment in a line: ChEBML_61437. The procedure:
In vitro antagonistic activity against Dopamine receptor D2 was evaluated for the inhibition of [3H]spiperone binding

Sequence of D(2) dopamine receptor (P61169 whole entry): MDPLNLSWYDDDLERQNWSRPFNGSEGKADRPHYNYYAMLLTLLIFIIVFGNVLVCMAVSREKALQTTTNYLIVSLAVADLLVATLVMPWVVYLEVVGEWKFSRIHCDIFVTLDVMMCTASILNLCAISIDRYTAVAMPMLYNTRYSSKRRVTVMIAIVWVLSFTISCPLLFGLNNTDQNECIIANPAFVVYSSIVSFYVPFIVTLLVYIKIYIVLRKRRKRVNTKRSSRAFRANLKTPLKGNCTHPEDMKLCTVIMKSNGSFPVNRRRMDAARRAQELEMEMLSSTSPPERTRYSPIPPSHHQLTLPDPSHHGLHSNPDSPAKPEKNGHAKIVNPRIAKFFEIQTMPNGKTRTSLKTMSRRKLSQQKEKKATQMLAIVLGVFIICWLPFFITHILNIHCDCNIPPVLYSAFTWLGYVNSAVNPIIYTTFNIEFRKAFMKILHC

As for `CCN(CC)CCNC(=O)c1cc(Cl)c(N)cc1OC(C)C(C)N=O` (configuration not stated) [4-Amino-5-chloro-N-(2-diethylamino-ethyl)-2-(2-hydroxyimino-1-methyl-propoxy)-benzamide], the IC50 was greater than 1000 nM.

For the compound `CCN(CC)CCNC(=O)c1cc(Cl)c(N)cc1OCC(C)N=O` (configuration not stated) [4-Amino-5-chloro-N-(2-diethylamino-ethyl)-2-(2-hydroxyimino-propoxy)-benzamide], the IC50 is greater than 1000 nM.
